This is an account of results in US10188756B2, “Imaging histone deacetylases with a radiotracer using positron emission tomography” (THE GENERAL HOSPITAL CORPORATION, priority 2013, dated 2019).

Assay [1] deals with HDAC5 (Homo sapiens (Human), UniProt Q9UQL6). Nature of the assay: HDAC inhibition assay. To be noted: read-out: IC50 HDAC5.
Experimental: (§2) All histone deacetylases were purchased from BPS Bioscience. […] All the other reagents were purchased from Sigma-Aldrich. Caliper EZ reader II system was used to collect all data. […] Purified HDACs were incubated with 2 μM carboxyfluorescein (FAM)-labeled acetylated or trifluoroacetylated peptide substrate (Broad Substrate A and B respectively) and test compound for 60 minutes at room temperature, in HDAC assay buffer that contained 50 mM HEPES (pH 7.4), 100 mM KCl, 0.01% BSA and 0.001% Tween-20. […] Substrate and product were separated electrophoretically and fluorescence intensity in the substrate and product peaks was determined and analyzed by Labchip EZ Reader. The reactions were performed in duplicate for each sample. IC50 values were automatically calculated by Origin 8 using 4 Parameter Logistic Model. The percent inhibition was plotted against the compound concentration, and the IC50 value was determined from the logistic dose-response curve fitting by Origin 8.0 software.
For assay [2], the target named is HDAC9 (Homo sapiens (Human), UniProt Q9UKV0). In words: HDAC inhibition assay. The note with it: read-out: IC50 HDAC9.
Experimental: as §2
The target in assay [3] is HDAC3 (Homo sapiens (Human), UniProt O15379). In words: HDAC inhibition assay. The note with it: read-out: IC50 HDAC3.
Sequence of HDAC3 (O15379 whole entry): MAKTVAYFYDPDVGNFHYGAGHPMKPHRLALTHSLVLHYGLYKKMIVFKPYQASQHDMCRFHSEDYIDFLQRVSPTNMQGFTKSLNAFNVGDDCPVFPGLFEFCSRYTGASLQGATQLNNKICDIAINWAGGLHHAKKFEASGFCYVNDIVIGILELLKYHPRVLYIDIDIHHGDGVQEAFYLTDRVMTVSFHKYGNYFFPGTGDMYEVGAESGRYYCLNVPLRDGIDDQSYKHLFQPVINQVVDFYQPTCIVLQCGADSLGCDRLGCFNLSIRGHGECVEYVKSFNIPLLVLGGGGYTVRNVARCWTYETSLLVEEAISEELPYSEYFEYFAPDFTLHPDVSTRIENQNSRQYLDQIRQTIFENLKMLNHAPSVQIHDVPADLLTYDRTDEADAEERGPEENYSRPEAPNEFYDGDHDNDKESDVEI
Sequence of HDAC3 (Q9Y618 395-489 partner): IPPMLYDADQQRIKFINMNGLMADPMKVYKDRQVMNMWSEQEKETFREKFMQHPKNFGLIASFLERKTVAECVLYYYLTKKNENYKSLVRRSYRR
Experimental: as §2
The target of assay [4] is HDAC1 (Homo sapiens (Human), UniProt Q13547). In words: HDAC inhibition assay. To be noted: read-out: IC50 HDAC1.
Sequence of HDAC1 (Q13547 whole entry): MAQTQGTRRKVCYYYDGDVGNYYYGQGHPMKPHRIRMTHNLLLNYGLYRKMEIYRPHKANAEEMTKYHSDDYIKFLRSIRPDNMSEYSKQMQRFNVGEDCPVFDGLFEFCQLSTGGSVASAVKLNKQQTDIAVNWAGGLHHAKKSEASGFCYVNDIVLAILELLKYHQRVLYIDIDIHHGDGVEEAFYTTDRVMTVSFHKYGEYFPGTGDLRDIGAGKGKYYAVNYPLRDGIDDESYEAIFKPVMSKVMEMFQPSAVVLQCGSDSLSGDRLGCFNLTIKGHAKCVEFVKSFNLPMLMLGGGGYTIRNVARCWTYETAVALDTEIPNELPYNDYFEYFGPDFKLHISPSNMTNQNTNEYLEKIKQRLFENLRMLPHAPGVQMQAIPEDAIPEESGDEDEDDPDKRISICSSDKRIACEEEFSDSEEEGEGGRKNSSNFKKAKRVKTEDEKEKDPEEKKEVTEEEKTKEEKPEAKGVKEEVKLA
Experimental: as §2
In assay [5] the target is HDAC2 (Homo sapiens (Human), UniProt Q92769). In words: HDAC inhibition assay. It is filed as biochemical. The source says: (§1) All histone deacetylases were purchased from BPS Bioscience. […] All the other reagents were purchased from Sigma-Aldrich.
Sequence of HDAC2 (Q92769 whole entry): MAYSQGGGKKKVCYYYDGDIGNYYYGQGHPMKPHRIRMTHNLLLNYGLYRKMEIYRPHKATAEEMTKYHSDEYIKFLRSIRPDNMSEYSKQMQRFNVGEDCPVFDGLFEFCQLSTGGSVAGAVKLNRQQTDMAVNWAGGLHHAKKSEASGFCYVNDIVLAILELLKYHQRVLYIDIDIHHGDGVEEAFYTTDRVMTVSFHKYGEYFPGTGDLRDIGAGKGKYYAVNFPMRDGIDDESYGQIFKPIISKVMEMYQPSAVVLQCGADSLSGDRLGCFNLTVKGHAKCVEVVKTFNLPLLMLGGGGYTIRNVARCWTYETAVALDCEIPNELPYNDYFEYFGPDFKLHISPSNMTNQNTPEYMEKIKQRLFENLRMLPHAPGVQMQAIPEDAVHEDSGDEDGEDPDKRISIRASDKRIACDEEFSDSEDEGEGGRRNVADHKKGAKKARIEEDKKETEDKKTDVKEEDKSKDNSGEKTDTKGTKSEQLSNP
The target in assay [6] is HDAC8 (Homo sapiens (Human), UniProt Q9BY41). In words: HDAC inhibition assay. Format: biochemical.
Sequence of HDAC8 (Q9BY41 whole entry): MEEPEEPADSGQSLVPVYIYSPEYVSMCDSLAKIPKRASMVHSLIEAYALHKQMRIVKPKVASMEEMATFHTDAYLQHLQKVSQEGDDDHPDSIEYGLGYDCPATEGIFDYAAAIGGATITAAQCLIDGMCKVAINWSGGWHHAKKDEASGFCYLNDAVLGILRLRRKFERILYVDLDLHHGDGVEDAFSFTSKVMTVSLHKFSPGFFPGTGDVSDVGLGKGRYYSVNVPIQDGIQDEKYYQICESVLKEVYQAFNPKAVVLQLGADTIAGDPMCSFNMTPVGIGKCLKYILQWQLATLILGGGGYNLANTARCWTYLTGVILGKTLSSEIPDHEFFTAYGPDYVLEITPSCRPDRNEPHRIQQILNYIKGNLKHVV
Excerpt: as §1

In assay [7] the target is HDAC6 (Homo sapiens (Human), UniProt Q9UBN7). In words: HDAC inhibition assay. Format: biochemical.
Excerpt: as §1

The target in assay [8] is HDAC4 (Homo sapiens (Human), UniProt P56524). Nature of the assay: HDAC inhibition assay. The note with it: read-out: IC50 HDAC4.
Sequence of HDAC4 (P56524 whole entry): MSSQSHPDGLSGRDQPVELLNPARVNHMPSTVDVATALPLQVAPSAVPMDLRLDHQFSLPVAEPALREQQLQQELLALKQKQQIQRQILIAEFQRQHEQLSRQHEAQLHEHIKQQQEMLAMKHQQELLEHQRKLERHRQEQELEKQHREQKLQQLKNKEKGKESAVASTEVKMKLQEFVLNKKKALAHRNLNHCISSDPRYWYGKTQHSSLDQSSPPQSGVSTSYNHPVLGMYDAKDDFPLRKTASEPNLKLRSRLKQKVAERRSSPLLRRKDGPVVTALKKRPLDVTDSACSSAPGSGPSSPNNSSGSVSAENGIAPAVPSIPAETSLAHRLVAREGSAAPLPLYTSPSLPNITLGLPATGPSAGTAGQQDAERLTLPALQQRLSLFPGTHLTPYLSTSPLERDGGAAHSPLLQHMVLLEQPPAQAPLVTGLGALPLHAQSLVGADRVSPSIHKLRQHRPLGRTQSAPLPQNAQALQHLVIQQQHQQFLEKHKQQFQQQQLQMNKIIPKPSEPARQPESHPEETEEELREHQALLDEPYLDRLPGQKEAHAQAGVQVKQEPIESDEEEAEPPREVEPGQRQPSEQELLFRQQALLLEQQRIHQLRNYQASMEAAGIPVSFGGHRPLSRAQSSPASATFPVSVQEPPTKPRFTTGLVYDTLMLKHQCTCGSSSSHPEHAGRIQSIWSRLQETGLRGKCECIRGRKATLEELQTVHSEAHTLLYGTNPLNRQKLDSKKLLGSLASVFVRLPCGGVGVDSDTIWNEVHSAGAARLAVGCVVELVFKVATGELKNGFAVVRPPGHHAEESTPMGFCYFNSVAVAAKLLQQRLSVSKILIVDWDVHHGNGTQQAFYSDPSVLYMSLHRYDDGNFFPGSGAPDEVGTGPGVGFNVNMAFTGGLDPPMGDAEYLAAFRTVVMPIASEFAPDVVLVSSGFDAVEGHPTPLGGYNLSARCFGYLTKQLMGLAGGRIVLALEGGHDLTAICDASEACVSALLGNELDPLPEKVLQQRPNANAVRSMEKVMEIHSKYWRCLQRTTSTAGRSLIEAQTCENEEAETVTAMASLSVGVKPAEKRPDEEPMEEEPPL
Experimental: as §2
For assay [9], the target named is HDAC7 (Homo sapiens (Human), UniProt Q8WUI4). In words: HDAC inhibition assay. The note with it: read-out: IC50 HDAC7.
Sequence of HDAC7 (Q8WUI4 whole entry): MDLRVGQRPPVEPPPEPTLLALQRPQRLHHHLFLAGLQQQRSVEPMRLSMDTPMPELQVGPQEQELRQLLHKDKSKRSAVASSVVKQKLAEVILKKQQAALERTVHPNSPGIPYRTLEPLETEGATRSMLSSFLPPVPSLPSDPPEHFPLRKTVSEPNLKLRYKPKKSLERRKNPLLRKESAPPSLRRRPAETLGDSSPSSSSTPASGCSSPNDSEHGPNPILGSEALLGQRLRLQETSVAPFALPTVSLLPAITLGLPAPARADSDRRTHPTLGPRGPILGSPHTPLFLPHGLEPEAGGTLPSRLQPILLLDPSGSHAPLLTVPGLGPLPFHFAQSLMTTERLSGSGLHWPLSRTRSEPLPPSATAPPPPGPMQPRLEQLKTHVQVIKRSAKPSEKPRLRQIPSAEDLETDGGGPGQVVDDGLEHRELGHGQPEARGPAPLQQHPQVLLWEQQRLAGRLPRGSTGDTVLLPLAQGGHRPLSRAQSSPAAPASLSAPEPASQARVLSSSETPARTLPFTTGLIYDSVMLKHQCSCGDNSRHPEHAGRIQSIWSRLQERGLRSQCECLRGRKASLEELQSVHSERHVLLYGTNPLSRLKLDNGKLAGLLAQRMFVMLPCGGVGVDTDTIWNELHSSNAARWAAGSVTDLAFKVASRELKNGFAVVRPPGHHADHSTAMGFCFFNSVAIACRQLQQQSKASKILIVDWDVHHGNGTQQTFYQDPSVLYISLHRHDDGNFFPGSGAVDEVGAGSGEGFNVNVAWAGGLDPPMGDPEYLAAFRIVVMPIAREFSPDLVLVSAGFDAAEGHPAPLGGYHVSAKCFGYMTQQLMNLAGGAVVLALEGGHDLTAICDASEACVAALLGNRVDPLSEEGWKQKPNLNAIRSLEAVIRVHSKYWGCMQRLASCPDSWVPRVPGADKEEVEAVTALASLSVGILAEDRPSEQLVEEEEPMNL
Experimental: as §2
Assay [10] concerns histone deacetylases. Nature of the assay: Baboon PET/MR imaging with [11C]CN133. Format: in vivo, baboon (Papio anubis). The note with it: for VT (Ichese MAI), CN147 blocked / VT (Logan Plot), CN147 blocked: [11C]CN133 VT after CN147 0.5 mg/kg intravenous; for VT (Ichese MAI), % Difference / VT (Logan Plot), % Difference: baseline vs CN147 blocked. Here is the method: A female Papio Anubis baboon, deprived of food for 12 hours prior to the study, was administered intramuscular ketamine (10 mg/kg) and intubated. For maintenance of anesthesia throughout the study, the baboon was provided 1%-4% isoflurane (Forane) in a mixture of medical oxygen and nitrogen. The baboon was catheterized antecubitally for radiotracer injection and a radial arterial line was placed for metabolite analysis. MR-PET images were acquired in a BiographmMR scanner (Siemens, Munich, Germany), and PET compatible 8-channel coil arrays for non-human primate brain imaging with a PET resolution of 5 mm and field of view of 59.4 cm and 25.8 cm (transaxial and axial, respectively). Dynamic PET image acquisition was initiated followed by administration of the radiotracer in a homogenous solution of 10% ethanol and 90% isotonic saline. An […] sequence began after 30 minutes of the baseline scan for anatomic coregistration. […] Both scans were carried out in the same animal on the same day, separated by 2.5 hours. In both scans, 4-5 mCi of [^11C]CN133 was administered to the baboon. Dynamic data from the PET scans were recorded in list mode and corrected for attenuation. Baboon data were reconstructed using a 3D-OSEM method resulting in a full width at half-maximum resolution of 4 mm.
Volumes of interest (VOIs) were drawn manually as spheres in brain regions guided by high resolution MR structural images and summed PET data, with a radius no less than 4 mm. A common VOI mask was applied to both baboon scans. Time-activity curves (TACs) were exported in terms of decay corrected activity per unit volume at specified time points with gradually increasing intervals. The TACs were expressed as percent injected dose per unit volume for analysis.
Arterial samples collected during imaging from the baboon were centrifuged to obtain plasma, which was then removed and placed in an automated gamma counter that was calibrated to the PET scanner. Metabolite analysis was conducted on a custom automated robot fitted with Phenomenex SPE Strata-X 500 mg solid phase extraction cartridges that were primed with ethanol (2 mL) and deionized water (20 mL). Protein precipitation was achieved by addition of plasma (300 μL) to acetonitrile (300 μL), which was centrifuged for 1 minute to obtain protein-free plasma (PFP). 300 μL of PFP/acetonitrile solution was diluted into deionized water (3 mL), loaded onto the C18 cartridge, and removed of polar metabolites with 100% water. Next, a series of extractions were performed using water and acetonitrile in quantities: 95:5, 90:10, 85:15, 80:20, 70:30, 60:40, 30:70 and 100% acetonitrile at a volume of 4 mL. A control experiment was performed before metabolite analysis to determine the retention of the parent compound by injection of a small amount of [^11C]CN133 onto a test series of extraction cartridges. Each sample was counted in a WIZARD2 Automatic Gamma Counter to determine the presence of radiolabeled metabolites.
CN147 blocks ˜40% of [^11C]CN133 binding in NHP whole brain and in cerebellum. Plasma-normalized data were evaluated by volume of interest analysis (VOI) at the whole brain level and at level of the cerebellum. VOI data were then applied to distribution volume (VT) data analysis by two graphical methods using PMOD software, tabulated in Tables A and B below. Logan Plot and Ichese MAI methods were clarified from previous NHP imaging analyses to provide an accurate VT estimate (+/− standard error) from data beginning 35 min after injection of radiotracer (t*=35 min) until the end of the scan (t=80min).

A word on the IC50: it is the concentration that gives 50% inhibition.

Sequence of HDAC9 (Q9UKV0 whole entry): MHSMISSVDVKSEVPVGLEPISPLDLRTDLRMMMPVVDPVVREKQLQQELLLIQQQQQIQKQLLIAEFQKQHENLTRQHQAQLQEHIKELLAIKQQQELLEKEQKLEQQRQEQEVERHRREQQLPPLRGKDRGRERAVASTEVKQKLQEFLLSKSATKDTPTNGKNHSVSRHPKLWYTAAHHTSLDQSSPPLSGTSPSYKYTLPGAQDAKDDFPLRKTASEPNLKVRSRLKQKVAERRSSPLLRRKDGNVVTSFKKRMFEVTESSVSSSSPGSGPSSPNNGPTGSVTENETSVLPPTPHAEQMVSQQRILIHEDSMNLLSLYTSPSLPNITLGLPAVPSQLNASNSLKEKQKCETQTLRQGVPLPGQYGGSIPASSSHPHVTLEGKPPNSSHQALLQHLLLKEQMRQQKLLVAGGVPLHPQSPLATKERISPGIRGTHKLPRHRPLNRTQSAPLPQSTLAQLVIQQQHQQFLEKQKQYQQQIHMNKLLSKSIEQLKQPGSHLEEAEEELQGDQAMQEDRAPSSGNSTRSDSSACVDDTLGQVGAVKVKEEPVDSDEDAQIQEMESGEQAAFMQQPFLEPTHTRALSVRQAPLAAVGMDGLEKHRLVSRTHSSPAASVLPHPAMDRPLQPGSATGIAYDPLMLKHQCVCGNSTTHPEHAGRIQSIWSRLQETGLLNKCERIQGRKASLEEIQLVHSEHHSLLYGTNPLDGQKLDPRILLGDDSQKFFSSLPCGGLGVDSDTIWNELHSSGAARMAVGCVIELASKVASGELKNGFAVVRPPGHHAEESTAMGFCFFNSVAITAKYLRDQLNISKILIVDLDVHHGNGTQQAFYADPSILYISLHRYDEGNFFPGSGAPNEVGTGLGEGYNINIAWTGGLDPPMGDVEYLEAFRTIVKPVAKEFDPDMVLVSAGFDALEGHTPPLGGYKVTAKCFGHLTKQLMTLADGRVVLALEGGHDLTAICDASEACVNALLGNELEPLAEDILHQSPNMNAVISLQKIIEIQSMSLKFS

Turning to `CN(CCc1ccccc1)S(=O)(=O)c1cccc(/C=C/C(=O)NO)c1` [CN89], the IC50 in assay [1] is greater than 10 µM; in assay [2], greater than 10 µM; in assay [3] it was 3.4 nM; in assay [4], 5 nM; in [5], 32 nM; in [6], 150 nM. Also, the IC50 in assay [7] is 5 nM; in assay [8] it was 0.5 µM.

For the compound `CN(C)Cc1ccc(/C=C/C(=O)NO)cc1` [CN145], the IC50 in [1] is greater than 70 µM; in [3], 9240 nM; in assay [4], greater than 50000 nM; in [7], 6820 nM.

With `CN(C)c1ccc(C(=O)NCCCCCCC(=O)NO)cc1` [CN52], the IC50 worked out at 4.3 nM in assay [3], 7.3 nM in [4] and 20.7 nM in assay [5].

Consider `COc1ccc2c(c1)C(=O)N(CCCCCC(=O)NO)c1ccccc1S2(=O)=O` [CN113], for which the IC50 in [1] is 3.85 µM; in [9], 9.65 µM; in [2], greater than 20 µM; in assay [3], 1.3 nM; in assay [4], 0.8 nM; in assay [5], 2 nM. Also, the IC50 is 2840 nM in assay [6], 1.2 nM in assay [7] and 9.45 µM in [8].

Take `CCCCc1nc2cc(/C=C/C(=O)NO)ccc2n1CCN(C)C` [CN101]: the IC50 was greater than 10 µM in assay [1]; greater than 40 µM in assay [9]; greater than 50 µM in assay [2]; 1.9 nM in assay [3]; 4.7 nM in assay [4]; 18 nM in assay [5]. Moreover, the IC50 is 2370 nM in assay [6], 8.4 nM in assay [7] and greater than 10 µM in assay [8].

For `COc1ccc(/C=C/C(=O)NO)cc1` [CN87], the IC50 in assay [1] was greater than 10 µM; in [9] it was greater than 70 µM; in assay [2], greater than 70 µM; in assay [3], 238 nM; in [4], 301 nM; in assay [5], 833 nM. Also, the IC50 is 2570 nM in [6], 23.2 nM in [7] and greater than 70 µM in assay [8].

With `CCCCN(Cc1ccc(C(=O)NO)cc1)C(=O)Nc1ccccc1OC` [CN165], the IC50 in [3] was 143 nM; in assay [4], 96.7 nM; in assay [5] it was 307 nM; in assay [6] it was 493 nM; in assay [7], 2.13 nM.

Take `CN(Cc1ccc(/C=C/C(=O)NO)cc1F)CC12CC3CC(CC(C3)C1)C2` [CN149]: the IC50 is 4.75 µM in [1]; greater than 50 µM in assay [9]; greater than 50 µM in assay [2]; 0.76 nM in [3]; 0.78 nM in assay [4]; greater than 50000 nM in [6]. The IC50 in assay [7] was found to be 11.7 nM; in assay [8], 20.3 µM.

Turning to `CN(Cc1ccc2c(c1)CCC(C(=O)NO)=C2)CC12CC3CC(CC(C3)C1)C2` [CN141], the IC50 in [1] is 0.207 µM; in assay [9] it was 5.51 µM; in [2], greater than 10 µM; in assay [3], 97.9 nM; in assay [4], 55.8 nM; in assay [6] it was 2400 nM. Also, the IC50 in assay [7] amounted to 14.4 nM; in [8], 0.389 µM.

For `CN(c1ccccc1)S(=O)(=O)c1cccc(/C=C/C(=O)NO)c1` [CN88], the IC50 in [1] was 7.95 µM; in assay [9], 2.02 µM; in assay [2], greater than 10 µM; in assay [3], 13.7 nM; in assay [4], 17.8 nM; in assay [5], 52.9 nM. The IC50 in assay [6] stood at 925 nM; in assay [7] it was 4.1 nM; in assay [8], 3.83 µM.

Turning to `O=C(/C=C/c1ccc(CN(CCF)CC23CC4CC(CC(C4)C2)C3)cc1)NO` [CN146], the IC50 in assay [1] is 5.35 µM; in [9], greater than 30 µM; in assay [2], greater than 40 µM; in [3], 470 nM; in [4] it was 221 nM; in assay [6], greater than 30000 nM. Besides, the results for the IC50 in [7] and in [8] were 308 nM and greater than 10 µM, respectively.

As for `CNc1ccc(C(=O)NCCCCC(=O)NO)cc1` [CN51], the IC50 was found to be 84.5 nM in assay [3], 106 nM in [4] and 477 nM in [5].

With `O=C(/C=C/c1ccc(CNCC23CC4CC(CC(C4)C2)C3)cc1)NO` [CN132], the IC50 in [9] is greater than 20 µM; in assay [2], greater than 10 µM; in [3], 1.2 nM; in assay [4], 0.95 nM; in [5] it was 7.8 nM; in assay [6] it was greater than 10000 nM. Besides, the IC50 in assay [7] was 1.7 nM.

With `CN(Cc1ccc(/C=C/C(=O)NO)cc1F)CC1CCCCC1` [CN167], the IC50 in assay [3] turned out to be 4.83 nM; in assay [4], 5.43 nM; in [5], 40 nM; in assay [6] it was 1810 nM; in [7], 18.7 nM.

For `CNc1ccc(C(=O)NCCCCCCC(=O)NO)cc1` [CN53], the values for the IC50 in assay [3], in assay [4] and in assay [5] were 5.7 nM, 6.1 nM and 11.9 nM, respectively.

As for `O=C(/C=C/c1ccc(CNCC2CCCCC2)cc1)NO` [CN143], the IC50 in assay [1] is 0.196 µM; in [9], greater than 20 µM; in assay [2] it was greater than 10 µM; in assay [3], 4.3 nM; in assay [4], 1.8 nM; in [6], 9600 nM. Further, the IC50 amounted to 9.7 nM in [7] and 0.927 µM in [8].

As to `CN(Cc1ccc(/C=C/C(=O)Nc2ccccc2N)cc1)CC12CC3CC(CC(C3)C1)C2` [CN147], in [10] (Cerebellum VOI), the “VT (Ichese MAI), CN147 blocked” value is recorded as 11.68 ± 8.42; the “VT (Logan Plot), CN147 blocked” value turned out to be 11.59 ± 3.37; the “VT (Ichese MAI), % Difference” value turned out to be 39.95%; the “VT (Logan Plot), % Difference” value was 39.89%. Besides, the “blocking of [11C]CN133 binding” value in assay [10] (NHP whole brain and cerebellum) was roughly 40%. Moreover, in [10] (Whole Brain VOI), the “VT (Ichese MAI), CN147 blocked” value came out at 8.92 ± 9.26; the “VT (Logan Plot), CN147 blocked” value is 8.85 ± 3.06; the “VT (Ichese MAI), % Difference” value was 39.11%; the “VT (Logan Plot), % Difference” value is listed as 38.80%.

For `O=C(/C=C/c1ccc(CNCC2CCCCC2)c(F)c1)NO` [CN166], the IC50 was 0.54 nM in assay [3]; 1.64 nM in assay [4]; 14.2 nM in assay [5]; 725 nM in assay [6]; 11.7 nM in [7].

For `COc1ccc2c(c1)C(=O)N(CCCCCC(=O)NO)c1ccccc1S2` [CN112], the IC50 in assay [1] was greater than 20 µM; in [2], 1.47 µM; in assay [3], 1.1 nM; in [4], 1.2 nM; in [5] it was 4 nM; in [6], greater than 70000 nM. The IC50 is 2.3 nM in assay [7] and greater than 10 µM in assay [8].

On to `CN(C)CCOc1ccc2c(c1)C(c1ccc(C(=O)NO)cc1)=Nc1ccccc1O2` [CN56], for which the figures for the IC50 in assay [3], in [4] and in [5] were 97.8 nM, 270 nM and 160 nM, respectively.
